Results reported in publication PMC9377253, “Antiproliferative and cytotoxic effects of sesquiterpene lactones isolated from Ambrosia artemisiifolia on human adenocarcinoma and normal cell lines” (Pharmaceutical Biology, 2022).
Values belong to the compound of their own block, whether it stands above or below them.

Experiments:
[1] = system: MCF-7 mp53 cells; parameters: method as in Sturgeon et al. [2005]; conditions: ref Sturgeon et al. [2005]; cited from earlier work
[2] = MTT cytotoxicity assay (24 h), MRC-5; assay type: cell-based; conditions: human, MRC-5 embryonal lung fibroblast cells, 24 h incubation
Method: (§1) MRC-5 human embryonal lung fibroblast cell lines (ATCC CCL-171) were purchased from LGC Promochem, Teddington, UK. The cell line was cultured in Eagle’s Minimal Essential Medium (EMEM, containing 4.5 g/L glucose) supplemented with a non-essential amino acid mixture, a selection of vitamins and 10% heat-inactivated foetal bovine serum. The cell lines were incubated at 37 °C, in a 5% CO2, 95% air atmosphere.
(§2) MRC-5 non-cancerous human embryonic lung fibroblast and human colonic adenocarcinoma cell lines (doxorubicin-sensitive Colo 205 and multidrug-resistant Colo 320 colonic adenocarcinoma cells) were used to determine the effect of compounds on cell proliferation and growth. The effects of increasing concentrations of compounds on cell proliferation and growth were tested in 96-well flat-bottomed microtitre plates. The compounds were diluted in a volume of 100 μL of medium.
(§3) The adherent human embryonal lung fibroblast cells were seeded overnight and cultured in 96-well flat-bottomed microtitre plates prior to the assay, using EMEM supplemented with 10% heat-inactivated foetal bovine serum. The density of the cells was adjusted to 6 × 10^3 cells (antiproliferative assay) or 1 × 10^4 cells (cytotoxicity assay) in 100 μL per well, the cells were seeded for 24 h at 37 °C, 5% CO2, then the medium was removed from the plates containing the cells, and the dilutions of compounds (200 µL) previously made in a separate plate were added to the cells in.
(§4) The culture plates were incubated at 37 °C for 72 h (antiproliferative test) or 24 h (cytotoxicity test); at the end of the incubation period, 20 μL of MTT (thiazolyl blue tetrazolium bromide, Sigma, St. Louis, MO, USA) solution (from a stock solution of 5 mg/mL) were added to each well. After incubation at 37 °C for 4 h, 100 μL of sodium dodecyl sulphate (SDS) (Sigma) solution (10% in 0.01 M HCI) were added to each well and the plates were further incubated at 37 °C overnight. Cell growth was determined by measuring the optical density (OD) at 540/630 nm with Multiscan EX ELISA reader (Thermo Labsystems, Cheshire, WA, USA). Inhibition of the cell growth was determined according to the formula below: Inhibition %=100−[OD sample−OD medium control/OD cell control−OD medium control]×100
(§5) Results are expressed in terms of IC50, defined as the inhibitory dose that reduces the growth of the cells exposed to the tested compounds by 50%.

[3] = system: multidrug-resistant Colo 320 colonic adenocarcinoma cells expressing the ABCB1 transporter; assay: Checkerboard combination assay with doxorubicin; assay type: cell-based, human
Method: A checkerboard microplate method was applied to study the effect of drug interactions between the compounds and doxorubicin. The assay was carried out using multidrug-resistant Colo 320 colonic adenocarcinoma cells expressing the ABCB1 transporter. The final concentration of the chemotherapeutic agent doxorubicin used in the combination experiment was chosen in accordance with their antiproliferative activity previously determined. The dilutions of the chemotherapeutic drug were made in a horizontal direction in 100 μL, and the dilutions of the compounds vertically in the microtitre plate in 50 μL volume. The cells were re-suspended in culture medium and distributed into each well in 50 μL containing 6 × 10^3 cells each. The plates were incubated for 72 h at 37 °C in 5% CO2 atmosphere. The cell growth rate was determined after MTT staining. At the end of the incubation period, 20 μL of MTT (thiazolyl blue tetrazolium bromide, Sigma) solution (from a stock solution of 5 mg/mL) was added to each well. After incubation at 37 °C for 4 h, 100 μL of SDS (Sigma-Aldrich, St. Louis, MO, USA) solution (10% in 0.01 M HCl; Merck, Darmstadt, Germany) were added to each well and the plates were further incubated at 37 °C overnight. OD was measured at 540/630 nm with Multiscan EX ELISA reader (Thermo Labsystems, Cheshire, WA). Combination index (CI) values at 50% of the growth inhibition dose (ED50), were determined using CompuSyn software (ComboSyn, Inc., Paramus, NJ) to plot four to five data points to each ratio.

[4] = system: multidrug-resistant Colo 320 colonic adenocarcinoma cells; assay: MTT cytotoxicity assay (24 h), Colo 320; assay type: cell-based; conditions: Homo sapiens, COLO 320, 24 h, 24 h incubation, read-out: Cytotoxicity IC50, Colo320
Method: (§6) Human colonic adenocarcinoma cell lines (Colo 205 doxorubicin-sensitive and Colo 320/MDR-LRP multidrug-resistant expressing ABCB1 (MDR1)-LRP), ATCC-CCL-220.1 (Colo 320) and CCL-222 (Colo 205) were purchased from LGC Promochem, Teddington, UK. The cells were cultured in RPMI 1640 medium supplemented with 10% heat-inactivated foetal bovine serum, 2 mM L-glutamine, 1 mM Na-pyruvate and 100 mM Hepes. The cell lines were incubated at 37 °C, in a 5% CO2, 95% air atmosphere. The semi-adherent human colon cancer cells were detached with Trypsin-Versene (EDTA) solution for 5 min at 37 °C.
as §2
(§7) In case of the colonic adenocarcinoma cells, the 2-fold serial dilutions of compounds were prepared in 100 μL of RPMI 1640, horizontally. The semi-adherent colonic adenocarcinoma cells were treated with Trypsin-Versene (EDTA) solution. The density of the cells was adjusted to 6 × 10^3 cells (antiproliferative assay) or 1 × 10^4 cells (cytotoxicity assay) in 100 μL of RPMI 1640 medium, and was added to each well, with the exception of the medium control wells. The final volume of the wells containing compounds and cells was 200 μL.
as §4, §5

[5] = system: doxorubicin-sensitive Colo 205 colonic adenocarcinoma cells; assay: MTT antiproliferative assay (72 h), Colo 205; assay type: cell-based, human; conditions: Homo sapiens, COLO 205, 72 h incubation, read-out: Antiproliferative IC50, Colo205
Method: as §6, §2, §7, §4, §5

[6] = system: multidrug-resistant Colo 320 colonic adenocarcinoma cells; assay: MTT antiproliferative assay (72 h), Colo 320; assay type: cell-based, human; conditions: Homo sapiens, COLO 320, 72 h, MTT, 72 h incubation; read-out: Antiproliferative IC50, Colo320
Method: as §6, §2, §7, §4, §5

[7] = system: doxorubicin-sensitive Colo 205 colonic adenocarcinoma cells; assay: MTT cytotoxicity assay (24 h), Colo 205; assay type: cell-based, human; conditions: Homo sapiens, COLO 205; MTT, 24 h incubation; read-out: Cytotoxicity IC50, Colo205
Method: as §6, §2, §7, §4, §5

[8] = system: MRC-5 human embryonal lung fibroblast cell line; assay: MTT antiproliferative assay (72 h), MRC-5; assay type: cell-based; conditions: Homo sapiens, MRC5, 72 h incubation
Method: as §1, §2, §3, §4, §5

[9] = MTT cytotoxicity assay (24 h), Colo 205; assay type: cell-based, human; conditions: human colonic adenocarcinoma cell lines versus MRC-5, cytotoxicity; read-out: selectivity index [SI], cytotoxicity
Method: as §6, §2, §7, §4, §5

[10] = system: Staphylococcus aureus ATCC 25923; assay: Real-time ethidium bromide accumulation assay, S. aureus ATCC 25923; assay type: cell-based; conditions: EB accumulation, 60 min, positive control at 25 μM
[11] = molecular target: T1, ABCB1 efflux pump (P-glycoprotein) (Homo sapiens, UniProt P08183); assay: Rhodamine 123 retention by flow cytometry (ABCB1 inhibition); assay type: cell-based; conditions: rhodamine 123, Colo 320 vs Colo 205, at 0.2 µM
T1 construct: The colonic adenocarcinoma cells (the doxorubicin-sensitive Colo 205 and the multidrug-resistant Colo 320); CCL-222 (Colo 205); host or cells: Colo 320/MDR-LRP (multidrug-resistant, overexpressing ABCB1) and Colo 205 (sensitive) human colon adenocarcinoma cells
T1 sequence (P08183 whole entry): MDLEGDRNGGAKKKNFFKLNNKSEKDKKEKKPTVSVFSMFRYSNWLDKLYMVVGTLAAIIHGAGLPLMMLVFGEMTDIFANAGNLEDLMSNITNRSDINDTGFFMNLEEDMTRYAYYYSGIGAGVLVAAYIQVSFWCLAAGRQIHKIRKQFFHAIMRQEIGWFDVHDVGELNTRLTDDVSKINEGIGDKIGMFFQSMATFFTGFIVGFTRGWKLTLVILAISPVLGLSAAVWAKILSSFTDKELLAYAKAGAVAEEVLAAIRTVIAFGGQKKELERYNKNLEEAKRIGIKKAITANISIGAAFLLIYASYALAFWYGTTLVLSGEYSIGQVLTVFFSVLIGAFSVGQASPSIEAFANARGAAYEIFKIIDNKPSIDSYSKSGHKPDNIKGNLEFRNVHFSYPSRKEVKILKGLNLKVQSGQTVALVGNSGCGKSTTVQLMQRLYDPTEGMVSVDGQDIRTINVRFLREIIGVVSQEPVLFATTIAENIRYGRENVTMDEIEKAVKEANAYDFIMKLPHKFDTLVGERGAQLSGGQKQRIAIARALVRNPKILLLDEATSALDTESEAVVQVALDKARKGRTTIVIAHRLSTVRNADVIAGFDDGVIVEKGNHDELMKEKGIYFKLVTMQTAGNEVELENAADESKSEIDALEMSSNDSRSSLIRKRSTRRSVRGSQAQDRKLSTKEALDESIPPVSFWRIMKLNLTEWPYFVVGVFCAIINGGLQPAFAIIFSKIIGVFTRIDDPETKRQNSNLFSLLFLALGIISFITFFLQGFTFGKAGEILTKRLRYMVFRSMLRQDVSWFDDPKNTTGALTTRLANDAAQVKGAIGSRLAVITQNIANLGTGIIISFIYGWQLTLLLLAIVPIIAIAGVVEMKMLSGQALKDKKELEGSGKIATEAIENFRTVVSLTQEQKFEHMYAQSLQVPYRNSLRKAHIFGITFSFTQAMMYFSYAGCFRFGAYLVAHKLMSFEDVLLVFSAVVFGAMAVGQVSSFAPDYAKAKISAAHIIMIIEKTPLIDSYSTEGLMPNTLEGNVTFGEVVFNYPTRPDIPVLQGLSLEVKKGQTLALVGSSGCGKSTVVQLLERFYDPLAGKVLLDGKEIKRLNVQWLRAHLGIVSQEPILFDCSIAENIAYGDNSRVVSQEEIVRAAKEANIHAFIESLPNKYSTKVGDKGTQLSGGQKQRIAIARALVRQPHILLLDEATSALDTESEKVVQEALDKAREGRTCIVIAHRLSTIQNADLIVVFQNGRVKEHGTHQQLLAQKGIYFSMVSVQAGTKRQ
Method: This method is a fluorescence-based detection system which uses tariquidar as a reference inhibitor of the ABCB1 efflux pump (EP). The colonic adenocarcinoma cells (the doxorubicin-sensitive Colo 205 and the multidrug-resistant Colo 320) were adjusted to a density of 2 × 10^6/mL, re-suspended in serum-free RPMI 1640 medium and distributed in 0.5 mL aliquots into Eppendorf centrifuge tubes. The compounds were added at different concentrations (2 μM and 20 μM final concentrations, respectively), and the samples were incubated for 10 min at room temperature. […] The fluorescence intensity of the cell population was measured with a Partec CyFlow flow cytometer (Partec, Munster, Germany). […] The mean fluorescence intensity (%) was calculated for the treated MDR Colo 320 and sensitive Colo 205 cell lines as compared to the untreated cells. The fluorescence activity ratio (FAR) was calculated based on the following equation which relates the measured fluorescence values: FAR=Colo 320treated/Colo 320control/Colo 205treated/Colo 205control
The fluorescence dye, rhodamine 123 was used as a marker of the ABCB1 transporter activity to explore the potential inhibitory activity of the isolated compounds. Inside cells without overexpressing the P-glycoprotein, the rhodamine 123 accumulates and resulting in an increase in fluorescence intensity (λex = 490/λem = 525 nm). […]

[12] = system: Escherichia coli AG100; conditions: EB accumulation, 60 min, positive control at 50 μM

IC50 [5]: 15.6 ± 0.83 µM
IC50 [6]: 14.7 ± 0.82 µM
Compound: C=C1C(=O)O[C@@H]2[C@H]1CC[C@H](C)[C@@H]1CCC(=O)O[C@@]21C [Compound 1, psilostachyin C]
effect on mitosis of MCF-7 mp53 cells (G2 checkpoint inhibitors) [1]: blocked MCF-7 mp53 cells in mitosis
IC50 at 24 h [2]: 52.7 ± 2.62 µM
Type of interaction ([3]; starting concentration 50 µM, ratio 11.6:1): Strong antagonism
Type of interaction ([3]; starting concentration 50 µM, ratio 23.2:1): Antagonism
Type of interaction ([3]; starting concentration 50 µM, ratio 46.4:1): Slight antagonism
Type of interaction ([3]; starting concentration 50 µM, ratio 92.8:1): Antagonism
Type of interaction ([3]; starting concentration 50 µM, ratio 185:1): Moderate antagonism
Type of interaction ([3]; starting concentration 50 µM, ratio compound:doxorubicin 5.8:1): Strong antagonism
IC50 [4]: 28.71 ± 0.11 µM
IC50 [7]: 26.6 ± 0.48 µM
IC50 [8]: 35.1 ± 4.03 µM

Compound: CC(=O)O[C@@H]1C[C@H]2[C@@H](C)CC[C@@H]3[C@@H](OC(=O)[C@@H]3C)[C@]2(C)C1=O [Compound 2, acetoxydihydrodamsin]
IC50 at 24 h [2]: 23.8 ± 1.06 µM
Type of interaction ([3]; starting concentration 15 µM, ratio 1.74:1): Antagonism
Type of interaction ([3]; starting concentration 15 µM, ratio 3.48:1): Antagonism
Type of interaction ([3]; starting concentration 15 µM, ratio 6.96:1): Antagonism
Type of interaction ([3]; starting concentration 15 µM, ratio 13.92.1): Antagonism
Type of interaction ([3]; starting concentration 15 µM, ratio 27.84:1): Moderate antagonism
Type of interaction ([3]; starting concentration 15 µM, ratio 55.68:1): Moderate antagonism
IC50 [4]: 10.8 ± 0.22 µM
IC50 [5]: 5.14 ± 0.55 µM
IC50 [6]: 3.67 ± 0.35 µM
selectivity ratio at 24 h [9]: 3.11
IC50 [7]: 7.64 ± 0.37 µM
IC50 [8]: 11 ± 0.31 µM

Compound: COC(=O)[C@H]1[C@H]2C[C@@H]3c4[nH]c5cc(OC)ccc5c4CCN3C[C@H]2C[C@@H](OC(=O)c2cc(OC)c(OC)c(OC)c2)[C@@H]1OC [reserpine]
RFI (relative fluorescence index) [10]: 2.77

FAR value (fluorescence activity ratio) [11]: 6.6
Compound: COc1cc2c(cc1OC)CN(CCc1ccc(NC(=O)c3cc(OC)c(OC)cc3NC(=O)c3cnc4ccccc4c3)cc1)CC2 [tariquidar]

Compound: carbonyl cyanide m-chlorophenylhydrazine [CCCP]
RFI (relative fluorescence index) [12]: 1.34
